Values of other authors in patent US4361703A, “Para-amino(or nitro)phenyl N-acetylaminothioalkanoates” (priority 1977, dated 1982).

Experiments:
mice = conditions: mouse, in vivo; cited from earlier work
death and liver injury = conditions: cited from earlier work
[1] = system: lethal and hepatotoxic effects of paracetamol overdosage; conditions: cited from earlier work

Row | Structure (SMILES) | 48 hour survival (mice) | effect of methionine added to oral paracetamol dose (death and liver injury) | effect of methionine combined with paracetamol [1]
1 | CC(=O)N[C@@H](CS)C(=O)O [N-acetylcysteine] | significantly improved 48 hour survival in mice |  | 
2 | CSCC[C@H](N)C(=O)O [methionine] |  | protects against death and liver injury | greatly reducing the lethal and hepatotoxic effects of paracetamol overdosage
